Laboratory results from ChEMBL document CHEMBL1201862, “PubChem BioAssay data set” (2004).
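Cells were grown in 96-well plates and exposed to each compound for 48 hours at five concentrations; endpoints were interpolated linearly between bracketing concentrations, or set to the highest concentration if not reached. Here, GI50 denotes the concentration required for 50% inhibition of growth.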 Calls of active or inactive are those of the source. No stated cut-off is given here; in the data, active = GI50 up to about 1.1 µM and inactive = higher. Numbered stars: 1 amine (or outer) side, 2 acyl side, 3 side chain; on linkers, the order of the positions; unused ones are H or OH. Bridge positions count the residues as written; N and C are the ends. Square brackets hold non-standard residues; d marks the D form. Peptide text beside a SMILES is read from it. I, II: the chains in the order shown. Actinocin(9to1) = Cc1c2oc3c(C)ccc(C(=O)[*:1])c3nc-2c(C(=O)[*:2])c(N)c1=O; NMeH = CN[CH](Cc1c[nH]cn1)C(=O)O; Sar = CNCC(=O)O

Legend:
Assay in all cases: NCI anticancer screen, dose series, 48 h
HCC 2998 = test system: HCC 2998
SK-OV-3 = test system: SK-OV-3
IGROV-1 = test system: IGROV-1
SNB-75 = test system: SNB-75
EKVX = test system: EKVX
TK-10 = test system: TK-10
M14 = test system: M14
UACC-257 = test system: UACC-257
SNB-19 = test system: SNB-19
LOX IMVI = test system: LOX IMVI
SF-268 = test system: SF-268
SK-MEL-28 = test system: SK-MEL-28
SF-295 = test system: SF-295
OVCAR-8 = test system: OVCAR-8
SK-MEL-5 = test system: SK-MEL-5
DMS-114 = test system: DMS-114
NCI-H23 = test system: NCI-H23
RXF 393 = test system: RXF 393
NCI-H226 = test system: NCI-H226
HOP-92 = test system: HOP-92

Row | Structure (SMILES) | GI50 (HCC 2998) | GI50 (SK-OV-3) | GI50 (IGROV-1) | GI50 (SNB-75) | GI50 (EKVX) | GI50 (TK-10) | GI50 (M14) | GI50 (UACC-257) | GI50 (SNB-19) | GI50 (LOX IMVI) | GI50 (SF-268) | GI50 (SK-MEL-28) | GI50 (SF-295) | GI50 (OVCAR-8) | GI50 (SK-MEL-5) | GI50 (DMS-114) | GI50 (NCI-H23) | GI50 (RXF 393) | GI50 (NCI-H226) | GI50 (HOP-92)
1 | CCOc1ccccc1/N=N/c1ccc2oc(=O)c(C(C)=O)cc2c1 | > 100 µM (inactive) | > 100 µM (inactive) | > 100 µM (inactive) | 16 µM (inactive) | 45.9 µM (inactive) | 30.5 µM (inactive) | > 100 µM (inactive) | > 100 µM (inactive) | 55.5 µM (inactive) | > 100 µM (inactive) | > 100 µM (inactive) | > 100 µM (inactive) | 41.4 µM (inactive) | > 100 µM (inactive) | > 100 µM (inactive) | > 100 µM (inactive) | > 100 µM (inactive) |  |  | 
2 | O=[N+]([O-])c1cc(-c2nnc(S)[nH]2)ccc1O | > 100 µM (inactive) | > 100 µM (inactive) | > 100 µM (inactive) |  | > 100 µM (inactive) | > 100 µM (inactive) | > 100 µM (inactive) | > 100 µM (inactive) | > 100 µM (inactive) | > 100 µM (inactive) | > 100 µM (inactive) | > 100 µM (inactive) | > 100 µM (inactive) |  | > 100 µM (inactive) | 32.4 µM (inactive) | > 100 µM (inactive) | > 100 µM (inactive) |  | 
3 | CC(C)C1CNC2N1C(=O)C2(C)OCc1ccccc1 (stereo unspecified) | > 100 µM (inactive) |  | > 100 µM (inactive) | 48.2 µM (inactive) | > 100 µM (inactive) | > 100 µM (inactive) | > 100 µM (inactive) | > 100 µM (inactive) | > 100 µM (inactive) | > 100 µM (inactive) | > 100 µM (inactive) | > 100 µM (inactive) | > 100 µM (inactive) | > 100 µM (inactive) | > 100 µM (inactive) | > 100 µM (inactive) | > 100 µM (inactive) | > 100 µM (inactive) | 40.6 µM (inactive) | 
4 | O=C(O)C1OC(Oc2cc(O)c3c(=O)cc(-c4ccc(O)cc4)oc3c2)C(O)C(O)C1O (stereo unspecified) | > 100 µM (inactive) |  |  | > 100 µM (inactive) | > 100 µM (inactive) | > 100 µM (inactive) | > 100 µM (inactive) | > 100 µM (inactive) | > 100 µM (inactive) | > 100 µM (inactive) | > 100 µM (inactive) | > 100 µM (inactive) | > 100 µM (inactive) | > 100 µM (inactive) | > 100 µM (inactive) | > 100 µM (inactive) | > 100 µM (inactive) |  | > 100 µM (inactive) | < 0.01 µM (active)
5 | O=C1C2=C(c3ccccc31)C(c1ccc([N+](=O)[O-])cc1)NC(S)=N2 (stereo unspecified) |  | > 100 µM (inactive) | 50 µM (inactive) | 23.9 µM (inactive) | > 100 µM (inactive) | > 100 µM (inactive) | 91.2 µM (inactive) | > 100 µM (inactive) | 97.3 µM (inactive) |  | 42.2 µM (inactive) | 59.3 µM (inactive) | 58.6 µM (inactive) | > 10 µM (inactive) | 27.4 µM (inactive) | 36.8 µM (inactive) | 38.5 µM (inactive) |  | 19.2 µM (inactive) | 51.1 µM (inactive)
6 | CC(C)(C)c1cc(C(=O)/C=C/c2ccc(O)c(O)c2O)cc(C(C)(C)C)c1O | 2.84 µM (inactive) | 3.87 µM (inactive) | 6 µM (inactive) | 1.95 µM (inactive) | 4.83 µM (inactive) | 3.57 µM (inactive) | 5.46 µM (inactive) | 3.05 µM (inactive) | 2.56 µM (inactive) | 9.71 µM (inactive) | 5.3 µM (inactive) | 5.01 µM (inactive) | 5.41 µM (inactive) | 4.07 µM (inactive) | 5.6 µM (inactive) |  | 4.03 µM (inactive) | 2.84 µM (inactive) | 14.1 µM (inactive) | 5.68 µM (inactive)
7 | O=C1N=C(SC(SC2=NC(=O)C3(NN2)c2ccccc2-c2ccccc23)=C(SC2=NC(=O)C3(NN2)c2ccccc2-c2ccccc23)SC2=NC(=O)C3(NN2)c2ccccc2-c2ccccc23)NNC12c1ccccc1-c1ccccc12 | > 10 µM (inactive) | > 10 µM (inactive) | 8.2 µM (inactive) | 7.96 µM (inactive) | 2.59 µM (inactive) | > 10 µM (inactive) | 8.71 µM (inactive) | 5.64 µM (inactive) | > 10 µM (inactive) | > 10 µM (inactive) | > 10 µM (inactive) | > 10 µM (inactive) | > 10 µM (inactive) | 7.21 µM (inactive) | 3.22 µM (inactive) |  | 7.59 µM (inactive) | > 10 µM (inactive) | 2.76 µM (inactive) | > 10 µM (inactive)
8 | COc1cc(NCC(C#N)C#N)ccc1/N=N/c1ccc(Cl)cc1 | 19.7 µM (inactive) | 29.9 µM (inactive) | 30.5 µM (inactive) | 31.6 µM (inactive) | 21.1 µM (inactive) | 29.8 µM (inactive) | 16.4 µM (inactive) |  | 13.1 µM (inactive) | 18.2 µM (inactive) | 38.5 µM (inactive) | 27.2 µM (inactive) | 22.3 µM (inactive) | 29.7 µM (inactive) | 23 µM (inactive) | 18.5 µM (inactive) | 23.8 µM (inactive) | 43.6 µM (inactive) | 30.5 µM (inactive) | 
9 | COC(=O)C1=CCON(c2ccccc2)C1c1ccccc1 (stereo unspecified) | 65.5 µM (inactive) | 53 µM (inactive) | 97.3 µM (inactive) | 49.5 µM (inactive) | 42.1 µM (inactive) | 44.9 µM (inactive) | 32.2 µM (inactive) |  | 62.8 µM (inactive) | 47.1 µM (inactive) | 75.3 µM (inactive) | 43.5 µM (inactive) |  |  |  | 48.3 µM (inactive) | 33.2 µM (inactive) | 48 µM (inactive) | 93.8 µM (inactive) | 
10 | O=c1cc(-c2ccccc2)[nH]c2cc(Cl)cc(Cl)c12 |  | 23.6 µM (inactive) | 52.7 µM (inactive) | 10.3 µM (inactive) |  | 46.1 µM (inactive) | > 100 µM (inactive) | > 100 µM (inactive) |  | 70 µM (inactive) | 28.4 µM (inactive) | > 100 µM (inactive) | 27 µM (inactive) | 26.1 µM (inactive) | 37.8 µM (inactive) | 26.4 µM (inactive) | 57.7 µM (inactive) | 15.2 µM (inactive) | 37.8 µM (inactive) | 25.5 µM (inactive)
11 | O=C1C2=C(c3ccccc31)C(c1ccccc1)NC(S)=N2 (stereo unspecified) | > 100 µM (inactive) | > 100 µM (inactive) | 75.3 µM (inactive) | 14.4 µM (inactive) | > 100 µM (inactive) | > 100 µM (inactive) | 55.1 µM (inactive) | > 100 µM (inactive) | 38 µM (inactive) |  | 30.8 µM (inactive) | 49.1 µM (inactive) | 31.9 µM (inactive) | 35.2 µM (inactive) | 54.8 µM (inactive) | 30.7 µM (inactive) | > 100 µM (inactive) |  | > 100 µM (inactive) | 14.8 µM (inactive)
12 | Cc1cc(Cl)ccc1NC1=NC(=O)C(CC(=O)Nc2ccc(Cl)cc2Cl)S1 (stereo unspecified) | > 100 µM (inactive) | > 100 µM (inactive) | > 100 µM (inactive) | > 100 µM (inactive) | > 100 µM (inactive) | > 100 µM (inactive) | > 100 µM (inactive) | > 100 µM (inactive) | > 100 µM (inactive) | > 100 µM (inactive) | > 100 µM (inactive) | > 100 µM (inactive) | > 100 µM (inactive) | > 100 µM (inactive) | > 100 µM (inactive) | > 100 µM (inactive) | > 100 µM (inactive) |  |  | 
13 | CC(=O)O[C@H]1C(=O)[C@@]2(C)[C@H]([C@H](OC(=O)c3cccc([N+](=O)[O-])c3)[C@]3(O)C[C@H](OC(=O)[C@H](O)[C@@H](NC(=O)c4ccccc4)c4ccccc4)C(C)=C1C3(C)C)[C@]1(OC(C)=O)CO[C@@H]1C[C@@H]2O | 0.00762 µM (active) | 0.00703 µM (active) | 0.00783 µM (active) | 0.00759 µM (active) | 2.78 µM (inactive) | 0.0495 µM (active) | 0.00619 µM (active) | < 0.0025 µM (active) | 0.00652 µM (active) | 0.00558 µM (active) | 0.021 µM (active) | 0.0157 µM (active) | 0.0155 µM (active) | 0.00785 µM (active) | 0.00582 µM (active) |  | 0.00912 µM (active) | 0.0133 µM (active) | 0.00257 µM (active) | 0.022 µM (active)
14 | Cc1c2oc3c(C)ccc(C(=O)NC4C(=O)NC(C(C)C)C(=O)N5CCCC5C(=O)N(C)CC(=O)N(C)C(Cc5cnc[nH]5)C(=O)OC4C)c3nc-2c(C(=O)NC2C(=O)NC(C(C)C)C(=O)N3CCCC3C(=O)N(C)CC(=O)N(C)C(Cc3cnc[nH]3)C(=O)OC2C)c(N)c1=O (stereo unspecified) (I: TVP[Sar][NMeH] / II: TVP[Sar][NMeH]; ester I:1-I:C, II:1-II:C; linker I:N-II:N via Actinocin(9to1); configuration not given here) | 37.8 µM (inactive) | 69.3 µM (inactive) | 47.3 µM (inactive) | 66.8 µM (inactive) | > 100 µM (inactive) | > 100 µM (inactive) | 68.5 µM (inactive) | > 100 µM (inactive) | 45 µM (inactive) | 20.2 µM (inactive) | 67.6 µM (inactive) | 39.4 µM (inactive) | 45.6 µM (inactive) | > 100 µM (inactive) | 16.9 µM (inactive) |  | 65.5 µM (inactive) | 14.7 µM (inactive) | 56.2 µM (inactive) | 40.6 µM (inactive)
